From PubChem BioAssay AID330 (DTP/NCI, 2004)
Several values for one entry are separate records, joined by “and”; a condition that tells them apart may be missing. Equal values may be shown once. Inconclusive results and toxic doses are left out. Rule for the calls: active = survival T/C of 150% or more; inactive = T/C below 125% in these data.

Tested on: P388 leukemia ip, CD2F1 mice, survival T/C
Experiment: NCI In Vivo Anticancer Drug Screen. Data for tumor model P388 Leukemia (intraperitoneal) in CD2F1 (CDF1) mice
Conditions: endpoint: median survival time, higher = longer survival
In short: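 Mice carrying the transplanted tumor received test compound or vehicle. Survival was recorded in each group, and the value is the treated-group measurement divided by that of the vehicle-treated control group.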

[1] = dose: 25.0 mg/kg/injection, schedule: Q01DX009 (ip), vehicle: saline with Tween-80
[2] = dose: 50.0 mg/kg/injection, schedule: Q01DX009 (ip), vehicle: saline with Tween-80
[3] = dose: 100.0 mg/kg/injection, schedule: Q01DX009 (ip), vehicle: saline with Tween-80
[4] = dose: 50.0 mg/kg/injection, schedule: Q01DX005 (ip), vehicle: saline with Tween-80
[5] = dose: 50.0 mg/kg/injection, schedule: Q01DX005 (ip), vehicle: Klucel (hydroxypropylcellulose) (HPC)
[6] = dose: 100.0 mg/kg/injection, schedule: Q01DX005 (ip), vehicle: Klucel (hydroxypropylcellulose) (HPC)
[7] = dose: 200.0 mg/kg/injection, schedule: Q01DX005 (ip), vehicle: Klucel (hydroxypropylcellulose) (HPC)
[8] = dose: 200.0 mg/kg/injection, schedule: Q01DX009 (ip), vehicle: saline with Tween-80

Measured: T/C

O=[Se]([O][Sn]([O][Se](=O)c1ccccc1)([O][Se](=O)c1ccccc1)[c]1ccccc1)c1ccccc1 (configuration not stated)
inactive: [1] 104 % of control and 96 % of control | [2] 100 % of control and 103 % of control and 118 % of control | [3] 111 % of control and 121 % of control and 96 % of control

Nc1ncnc2c1c1c(=O)[nH]c(=O)[nH]c1n2C1OC(CO)C(O)C1O (configuration not stated)
inactive: dose: 25.0 mg/kg/injection, schedule: Q01DX005 (ip), vehicle: distilled water + Tween-80 113 % of control | dose: 50.0 mg/kg/injection, schedule: Q01DX005 (ip), vehicle: distilled water + Tween-80 110 % of control | dose: 100.0 mg/kg/injection, schedule: Q01DX005 (ip), vehicle: distilled water + Tween-80 111 % of control | dose: 200.0 mg/kg/injection, schedule: Q01DX005 (ip), vehicle: distilled water + Tween-80 111 % of control | dose: 400.0 mg/kg/injection, schedule: Q01DX005 (ip), vehicle: distilled water + Tween-80 121 % of control

CCOc1ccc(C(C)c2cc3c(cc2OCC(=O)O)OCO3)cc1 (configuration not stated)
inactive: [4] 109 % of control | dose: 100.0 mg/kg/injection, schedule: Q01DX005 (ip), vehicle: saline with Tween-80 90 % of control

O=C1OC(c2ccccc2)=N/C1=C/c1c(-c2ccccc2)c(-c2ccccc2)c2n1CCC2
inactive: [5] 86 % of control | [6] 86 % of control | [7] 86 % of control

[N-]=[N+]=NCc1cnnn1C1OC(CO)C(O)C1O (configuration not stated)
inactive: dose: 60.0 mg/kg/injection, schedule: Q01DX005 (ip), vehicle: saline 102 % of control | dose: 120.0 mg/kg/injection, schedule: Q01DX005 (ip), vehicle: saline 115 % of control | dose: 240.0 mg/kg/injection, schedule: Q01DX005 (ip), vehicle: saline 99 % of control

COC1C=C(Br)C(=O)C(C)O1 (configuration not stated)
inactive: dose: 100.0 mg/kg/injection, schedule: Q04DX003 (ip), vehicle: Klucel (hydroxypropylcellulose) (HPC) 98 % of control | dose: 200.0 mg/kg/injection, schedule: Q04DX003 (ip), vehicle: Klucel (hydroxypropylcellulose) (HPC) 106 % of control

c1ccc(SCCSCCSc2ccccc2)cc1
inactive: [2] 105 % of control | [3] 101 % of control | [8] 106 % of control

Cc1cccc(=O)[n-]1.Cc1cccc(=O)[n-]1.Cc1cccc(=O)[n-]1.Cc1cccc(=O)[n-]1.[Cu+].[Cu+].[Cu+].[Cu+]
inactive: dose: 12.5 mg/kg/injection, schedule: Q04DX002 (ip), vehicle: Klucel (hydroxypropylcellulose) (HPC) 108 % of control | dose: 25.0 mg/kg/injection, schedule: Q04DX002 (ip), vehicle: Klucel (hydroxypropylcellulose) (HPC) 109 % of control | dose: 50.0 mg/kg/injection, schedule: Q04DX002 (ip), vehicle: Klucel (hydroxypropylcellulose) (HPC) 100 % of control | dose: 100.0 mg/kg/injection, schedule: Q04DX002 (ip), vehicle: Klucel (hydroxypropylcellulose) (HPC) 108 % of control

COc1ccc(I)c(C=NC2CCCCC2)c1C
inactive: dose: 50.0 mg/kg/injection, schedule: Q01DX005 (ip), vehicle: distilled water + Tween-80 + alcohol 98 % of control | dose: 100.0 mg/kg/injection, schedule: Q01DX005 (ip), vehicle: distilled water + Tween-80 + alcohol 97 % of control | dose: 200.0 mg/kg/injection, schedule: Q01DX005 (ip), vehicle: distilled water + Tween-80 + alcohol 98 % of control

[Cl][Pt+2][Cl].[NH-]CC([NH-])CN
inactive: dose: 6.25 mg/kg/injection, schedule: Q04DX003 (ip), vehicle: saline 101 % of control | dose: 12.5 mg/kg/injection, schedule: Q04DX003 (ip), vehicle: saline 111 % of control | dose: 25.0 mg/kg/injection, schedule: Q04DX003 (ip), vehicle: saline 107 % of control

O=C1C(c2ccccc2)=c2c(c3ccccc3c3ccccc23)=C1c1ccccc1
inactive: [5] 99 % of control | dose: 50.0 mg/kg/injection, schedule: Q01DX005 (ip), vehicle: Klucel + Tween-80 89 % of control and 95 % of control | [6] 98 % of control | dose: 100.0 mg/kg/injection, schedule: Q01DX005 (ip), vehicle: Klucel + Tween-80 89 % of control and 104 % of control | [7] 95 % of control | dose: 200.0 mg/kg/injection, schedule: Q01DX005 (ip), vehicle: Klucel + Tween-80 106 % of control

c1ccc(-c2nnc3ccccc3n2)cc1
inactive: [1] 99 % of control | [2] 98 % of control | [3] 98 % of control | [8] 93 % of control

Cc1csc(=NCc2cccnc2)n1C
inactive: dose: 6.25 mg/kg/injection, schedule: Q01DX009 (ip), vehicle: saline 100 % of control | dose: 12.5 mg/kg/injection, schedule: Q01DX009 (ip), vehicle: saline 107 % of control

Cc1nn(C(=O)c2cccnc2)c(-c2ccccc2)c1N=Nc1ccc(S(=O)(=O)N=C(N)N)cc1
inactive: dose: 3.12 mg/kg/injection, schedule: Q01DX005 (ip), vehicle: saline with Tween-80 98 % of control | dose: 6.25 mg/kg/injection, schedule: Q01DX005 (ip), vehicle: saline with Tween-80 95 % of control | dose: 12.5 mg/kg/injection, schedule: Q01DX005 (ip), vehicle: saline with Tween-80 105 % of control and 86 % of control | [4] 89 % of control
